In assay [1] the test system is diploid maize plants of a common inbred line. Briefly: Tiller induction in diploid maize (Example 6). Format: in vivo. The method, then:
Diploid maize plants of a common inbred line were subjected to a tiller induction treatment comprising drenching the soil surrounding the roots with 100 mL of a 2.5% PBZ solution (v/v; 0.4% of active ingredient) approximately one week after germination and then allowed to grow to sexual maturity in 10-inch pots a greenhouse. A control group of plants were grown under identical circumstances except that they were not subjected to the tiller induction treatment.
Three treatment groups were then formed from the tillers: tillers of the “Co-hab” treatment were allowed to continue growing in the same pot with the mother plant; those of the “-Mother” treatment also remained in the same pot, but the mother plant was removed from the pot; and those of the “Transplanted” treatment group were transplanted from the pot containing the mother plant into separate 10-inch pots, one plant per pot. Any naturally-occurring tillers produced by the control group were allowed to grow in the same pot as the mother plant, similar to the co-hab treatment. All plants were allowed to grow to sexual maturity and self-pollinated when silks and tassels formed. When seed set was complete, the average total number of seeds produced by all plants deriving from the same mother plant seed were counted and plotted in FIG. 3.

The subject of assay [2] is haploid maize lines (Germplasm A, Germplasm B). Description: Co-dominant ear induction by PBZ soil drench in colchicine-doubled haploid maize (Example 1). Type of assay: in vivo. The text has this: V1-V3 seedlings of two unique F1 hybrid-derived haploid maize lines, derived from: female heterotic group (Germplasm A) or male heterotic group (Germplasm B), were subjected to a bulk colchicine-based chromosome doubling treatment by removing the seedlings from soil or growth media at the V1-V3 growth stage and aligning their stems and wrapping them together along with several wooden rods into bundle a held together by a strip of aluminum foil (approximate foil strip dimensions were 6 in×18 in). The bundled plants were submerged in plant treatment solution comprising 1250 ppm of colchicine in a centrifuge container and then the entire sample was centrifuged at 50 g for 3 min while the shoot apical meristems (SAMs) remained submerged in the plant treatment agent solution.
Following the first centrifugation, the plant treatment solution was decanted and the seedlings subjected to an addition centrifugation at 335 g for 3 min. During the second centrifugation, the rod-wrap bundle supported the seedlings and prevented the SAMs from contacting the reserve treatment agent that was not absorbed by the plant during application of the centrifugal force.
Following the second centrifugation, the plants were removed from the centrifugation container and the rod-wrap bundle and rinsed with water to remove any remaining colchicine solution, and then recovered and tended in a light, humidity, and temperature-controlled greenhouse for several days before being transplanted to a nursery greenhouse. These centrifuge-based treatment methods are described in more detail in International application number PCT/US2015/028955, which is incorporated by reference herein in its entirety, however, standard doubling treatments can also be applied to any of the haploid doubling steps referred to herein.
Following colchicine doubling treatment, 15-20 plants from each germplasm were planted in pots at two different densities; either as single plants per pot (singles), or as two plants per pot (pairs).
Next, each plant received one of two different doses of PBZ, either 50 mL (low dose) or 60 mL (high dose) of a 2.5% PBZ solution (v/v; 0.4% of active ingredient) in water. These two different doses were applied by soil drench at either the V7 or V8 growth stage, which occurred a total of 23 or 26 days after the seedlings had been subjected to chromosome doubling treatment, respectively. A control group of plants received no treatment solution but were otherwise treated exactly as the experimental groups planted as singles. When pollen shed began at the tassels, the average number of silk-producing ears (i.e. co-dominant ears) were counted for each dosage, germplasm, and treatment time and the results summarized in Table. 1.

Molecules are shown by their SMILES.

As to `CC(C)(C)[C@@H](O)[C@@H](Cc1ccc(Cl)cc1)n1cncn1` (relative stereo) [PBZ, (±)-(R*, R*)-beta-((4-chlorophenyl)methyl)-alpha-(1,1,-dimethylethyl)-1H-1,2,4,-triazole-1-ethanol], the “effect on mother plants” value in assay [1] (100 mL 2.5% PBZ soil drench) is “shortened internodes, and induced the mother plants to produce tillers”. The “number of seeds vs control group” value in assay [1] (transplanted treatment group, 100 mL 2.5% PBZ one week after germination) is reported as “more than twice”. The “number of co-dominant ears formed per plant” value (“number … per plant” for short) in assay [2] (V7, Germplasm A, pairs, high dose (60 mL 2.5% PBZ)) is 3.4; in assay [2] (V7, Germplasm A, pairs, low dose (50 mL 2.5% PBZ)), 3; in assay [2] (V7, Germplasm A, singles, high dose (60 mL 2.5% PBZ)), 3.9; in assay [2] (V7, Germplasm A, singles, low dose (50 mL 2.5% PBZ)), 3.4; in assay [2] (V7, Germplasm B, pairs, high dose (60 mL 2.5% PBZ)), 1.5; in assay [2] (V7, Germplasm B, pairs, low dose (50 mL 2.5% PBZ)) it was 1.5. Besides, the “number … per plant” value in assay [2] (V7, Germplasm B, singles, high dose (60 mL 2.5% PBZ)) was 3.3; in assay [2] (V7, Germplasm B, singles, low dose (50 mL 2.5% PBZ)) it was 2.7; in assay [2] (V8, Germplasm A, pairs, high dose (60 mL 2.5% PBZ)) it was 2.2; in assay [2] (V8, Germplasm A, pairs, low dose (50 mL 2.5% PBZ)) it was 2.3; in assay [2] (V8, Germplasm A, singles, high dose (60 mL 2.5% PBZ)), 3.5; in assay [2] (V8, Germplasm A, singles, low dose (50 mL 2.5% PBZ)), 2.3. Also, the “number … per plant” value was 1.5 in assay [2] (V8, Germplasm B, pairs, high dose (60 mL 2.5% PBZ)); 1.5 in assay [2] (V8, Germplasm B, pairs, low dose (50 mL 2.5% PBZ)); 2.2 in assay [2] (V8, Germplasm B, singles, high dose (60 mL 2.5% PBZ)); 2.3 in assay [2] (V8, Germplasm B, singles, low dose (50 mL 2.5% PBZ)). Besides, the “average EP (ear per plant), high dosage greater than low dosage by” value in assay [2] (all plants) was 0.31. In addition, the “average EP, high-dose higher than low-dose by” value in assay [2] (singles only) is reported as 0.55. Further, in assay [2] (singles, low dose), the “minimum increase over control plants” value was at least 1.2 EP.

Values taken from patent US11917959B2, “Multi-ear system to enhance monocot plant yield” (Monsanto Technology LLC, priority 2015, dated 2024).
